Assay results as given in patent publication US12012399B2, “Microbiocidal quinoline dihydro-(thiazine)oxazine derivatives” (priority 2018, dated 2024).

Assays:
[1] = test system: Botryotinia fuckeliana (Botrytis cinerea); test: Botryotinia fuckeliana (Botrytis cinerea) / liquid culture (gray mould); assay type: cell-based; conditions: 72 h, compared to untreated control, growth inhibition determined photometrically 3-4 days after application
[2] = test system: Glomerella lagenarium (Colletotrichum lagenarium); test: Glomerella lagenarium (Colletotrichum lagenarium) / liquid culture (anthracnose); assay type: cell-based; conditions: Colletotrichum orbiculare, compared to untreated control, growth inhibition measured photometrically 3-4 days after application
Fusarium culmorum = test: microbe, parasite or virus in culture; assay type: cell-based; conditions: read-out: control of Fusarium culmorum
[3] = test system: Monographella nivalis (Microdochium nivale); test: Monographella nivalis (Microdochium nivale) / liquid culture (foot rot cereals); assay type: cell-based; conditions: compared to untreated control, growth inhibition determined photometrically 4-5 days after application
[4] = test system: Magnaporthe grisea (Pyricularia oryzae); test: microbe, parasite or virus in culture; assay type: cell-based; conditions: read-out: control of Magnaporthe grisea
Sclerotinia sclerotiorum = test: microbe, parasite or virus in culture; assay type: cell-based; conditions: read-out: control of Sclerotinia sclerotiorum
[5] = test system: Mycosphaerella graminicola (Septoria tritici); test: Mycosphaerella graminicola (Septoria tritici) / liquid culture (Septoria blotch); assay type: cell-based; conditions: Zymoseptoria tritici, compared to untreated control, growth inhibition determined photometrically 4-5 days after application
[6] = test system: Mycosphaerella graminicola (Septoria tritici); test: Mycosphaerella graminicola (Septoria tritici) on wheat / preventative; assay type: in vivo; conditions: Zymoseptoria tritici, wheat plants sprayed, inoculated one day after application, assessed 16-19 days after application vs untreated control

Row | Structure (SMILES) | inhibition of growth at 20 ppm [1] | inhibition of growth at 20 ppm [2] | inhibition of growth at 20 ppm (Fusarium culmorum) | inhibition of growth at 20 ppm [3] | inhibition of growth at 20 ppm [4] | inhibition of growth at 20 ppm (Sclerotinia sclerotiorum) | inhibition of growth at 20 ppm [5] | melting point | pest or weed control at 60 ppm [6]
1 | C[C@@]1(Cc2ccccc2)C[C@@](C)(CCl)OC(c2cnc3c(F)cccc3c2)=N1 [E-10, (4R,6S)-4-benzyl-6-(chloromethyl)-2-(8-fluoro-3-quinolyl)-4,6-dimethyl-5H-1,3-oxazine] | ≥ 80% | ≥ 80% | ≥ 80% | ≥ 80% | ≥ 80% | ≥ 80% | ≥ 70% | 125 to 130 °C | –
2 | CC1(C)CC(Cc2ccccc2)N=C(c2cnc3c(F)cccc3c2)O1 (stereo not drawn) [E-13, 4-benzyl-2-(8-fluoro-3-quinolyl)-6,6-dimethyl-4,5-dihydro-1,3-oxazine] | ≥ 80% | ≥ 80% | ≥ 80% | ≥ 80% | ≥ 80% | ≥ 80% | ≥ 70% | 90 to 92 °C | –
3 | Cc1nc2c(F)cccc2cc1C1=NC(C)(Cc2ccccc2)CC(C)(C)O1 (stereo not drawn) [E-16, 4-benzyl-2-(8-fluoro-2-methyl-3-quinolyl)-4,6,6-trimethyl-5H-1,3-oxazine] | ≥ 80% | ≥ 80% | ≥ 80% | ≥ 80% | ≥ 80% | ≥ 80% | ≥ 70% | – | –
4 | CC1(C)CC(Cc2cccc(F)c2)N=C(c2cnc3c(F)c(F)ccc3c2)O1 (stereo not drawn) [E-19, 2-(7,8-difluoro-3-quinolyl)-4-[(3-fluorophenyl)methyl]-6,6-dimethyl-4,5-dihydro-1,3-oxazine] | ≥ 80% | – | ≥ 80% | ≥ 80% | ≥ 80% | ≥ 80% | ≥ 70% | 95 to 98 °C | ≥ 80%
5 | CC1(C)CC(Cc2ccccc2F)N=C(c2cnc3c(F)c(F)ccc3c2)O1 (stereo not drawn) [E-20, 2-(7,8-difluoro-3-quinolyl)-4-[(2-fluorophenyl)methyl]-6,6-dimethyl-4,5-dihydro-1,3-oxazine] | ≥ 80% | – | ≥ 80% | ≥ 80% | ≥ 80% | – | – | – | ≥ 80%
6 | Fc1ccc2cc(C3=NC(Cc4ccccc4)CC4(CCCC4)O3)cnc2c1F (stereo not drawn) [E-21, 9-benzyl-7-(7,8-difluoro-3-quinolyl)-6-oxa-8-azaspiro[4.5]dec-7-ene] | ≥ 80% | – | – | ≥ 80% | ≥ 80% | – | ≥ 70% | – | ≥ 80%
7 | Cc1nc2c(F)c(F)ccc2cc1C1=NC(Cc2ccccc2)CC(C)(C)O1 (stereo not drawn) [E-22, 4-benzyl-2-(7,8-difluoro-2-methyl-3-quinolyl)-6,6-dimethyl-4,5-dihydro-1,3-oxazine] | ≥ 80% | – | ≥ 80% | ≥ 80% | – | ≥ 80% | ≥ 70% | – | ≥ 80%
8 | Fc1ccc2cc(C3=NC(Cc4ccccc4)CC4(CCC4)O3)cnc2c1F (stereo not drawn) [E-23, 8-benzyl-6-(7,8-difluoro-3-quinolyl)-5-oxa-7-azaspiro[3.5]non-6-ene] | ≥ 80% | – | – | ≥ 80% | – | – | – | 159 to 162 °C | ≥ 80%
9 | Cc1nc2c(F)c(F)ccc2cc1C1=NC(Cc2ccc(F)cc2)CC(C)(C)O1 (stereo not drawn) [E-24, 2-(7,8-difluoro-2-methyl-3-quinolyl)-4-[(4-fluorophenyl)methyl]-6,6-dimethyl-4,5-dihydro-1,3-oxazine] | ≥ 80% | – | – | ≥ 80% | – | – | ≥ 70% | 128 to 132 °C | ≥ 80%
10 | CC1(C)CC(Cc2ccccc2)N=C(c2cnc3c(F)c(F)ccc3c2)O1 (stereo not drawn) [F-5] | ≥ 80% | – | ≥ 80% | ≥ 80% | ≥ 80% | ≥ 80% | ≥ 70% | – | ≥ 80%
11 | CC1(C)CC(Cc2ccc(F)cc2)N=C(c2cnc3c(F)c(F)ccc3c2)O1 (stereo not drawn) [F-7] | – | – | ≥ 80% | – | – | – | – | 117 to 119 °C | ≥ 80%
